Test: photoluminescence quantum yield (fraction); solvent given as SMILES

COC(=O)c1ccc(C2=C3C=CC(C)=[N+]3[B-](F)(F)n3c(C)ccc32)cc1
photoluminescence quantum yield (in C1CCCCC1): 0.073 | photoluminescence quantum yield (in C1CCOC1): 0.056 | photoluminescence quantum yield (in CC#N): 0.039 | photoluminescence quantum yield (in CCOC(C)=O): 0.053 | photoluminescence quantum yield (in CO): 0.032 | photoluminescence quantum yield (in Cc1ccccc1): 0.12 | photoluminescence quantum yield (in ClC(Cl)Cl): 0.095

COc1ccc(C2=[N+]3C(=Nc4c(-c5cc(OC)c(OC)c(OC)c5)cc(-c5ccc(OC)cc5)n4[B-]3(F)F)C(c3cc(OC)c(OC)c(OC)c3)=C2)cc1
photoluminescence quantum yield (in Cc1ccccc1): 0.24

Cc1cc(C)c(B(c2ccc(N3c4ccccc4Oc4ccccc43)cc2)c2c(C)cc(C)cc2C)c(C)c1
photoluminescence quantum yield (in Cc1ccccc1): 0.87

Cc1cc(C)c(C2=[N+]3C(=Cc4c(C)cc(C)n4[B-]3(F)F)c3ccccc32)[nH]1
photoluminescence quantum yield (in C1CCOC1): 0.06 | photoluminescence quantum yield (in CC#N): 0.02 | photoluminescence quantum yield (in CCCCCC): 0.85 | photoluminescence quantum yield (in CO): 0.03 | photoluminescence quantum yield (in Cc1ccccc1): 0.81 | photoluminescence quantum yield (in ClCCl): 0.61

CC(C)[Si](C#Cc1c2nc3ccccc3nc2c(C#C[Si](C(C)C)(C(C)C)C(C)C)c2nc3c(ccc4cc5ccccc5cc43)nc12)(C(C)C)C(C)C
photoluminescence quantum yield (in CCCCCC): 0.25

CC(C)(C)c1ccc2c(c1)Sc1cc(C(C)(C)C)ccc1N2c1ccc2c(ccc3nc4ccc5cc(N6c7ccc(C(C)(C)C)cc7Sc7cc(C(C)(C)C)ccc76)ccc5c4nc32)c1
photoluminescence quantum yield (in C1CCCCC1): 0.11 | photoluminescence quantum yield (in Cc1ccccc1): 0.04

COc1ccc(C2=C3C=CC(C)=[N+]3[B-](F)(F)n3c(C)ccc32)cc1
photoluminescence quantum yield (in C1CCCCC1): 0.42 | photoluminescence quantum yield (in C1CCOC1): 0.36 | photoluminescence quantum yield (in CC#N): 0.21 | photoluminescence quantum yield (in CCOC(C)=O): 0.3 | photoluminescence quantum yield (in CO): 0.25 | photoluminescence quantum yield (in Cc1ccccc1): 0.52 | photoluminescence quantum yield (in ClC(Cl)Cl): 0.46

N#Cc1ccc(-n2nc(C#N)c(N3CCCC3)n2)cc1
photoluminescence quantum yield (in CC#N): 0.579

O=C1c2ccc3c4c(-c5ccccc5)cc5c6c(ccc(c7c(-c8ccccc8)cc(c2c37)C(=O)N1C1CCCCC1)c64)C(=O)N(C1CCCCC1)C5=O
photoluminescence quantum yield (in ClC(Cl)Cl): 0.186

c1ccc(-c2c3ccccc3c(-c3ccccc3)c3cc4ccccc4cc23)cc1
photoluminescence quantum yield (in ClCCl): 0.97

CC1=CC(C)=[N+]2C1=C(c1ccc(I)cc1)c1c(C)cc(C)n1[B-]21Oc2ccc3ccccc3c2-c2c(ccc3ccccc23)O1
photoluminescence quantum yield (in ClC(Cl)Cl): 0.002

Oc1ccccc1/C=N/c1cc2nc3ccccc3nc2cc1/N=C/c1ccccc1O
photoluminescence quantum yield (in CC#N): 0.34

CN(C)c1cccc2c1-c1ccccc1C2=O
photoluminescence quantum yield (in C1CCCCC1): 0.075 | photoluminescence quantum yield (in CC#N): 0.0075 | photoluminescence quantum yield (in CCO): 0.00027 | photoluminescence quantum yield (in c1ccccc1): 0.073

O=C1c2ccccc2C2=Nc3ccc4ccccc4[n+]3[B-](F)(F)N12
photoluminescence quantum yield (in ClCCl): 0.74

CC(=O)c1ccc(C#Cc2ccc(-c3cc(N(C)C)c4ccccc4c3)cc2)cc1
photoluminescence quantum yield (in ClCCl): 0.03

c1ccc2cc3cc(-c4cc(-c5nccs5)nc(-c5nccs5)c4)ccc3cc2c1
photoluminescence quantum yield (in CC#N): 0.564 | photoluminescence quantum yield (in CCCCCC): 0.108 | photoluminescence quantum yield (in CO): 0.194 | photoluminescence quantum yield (in ClC(Cl)Cl): 0.433

COc1ccc(NC(=O)C(C(=O)Nc2ccc(OC)cc2)C(c2ccccc2O)c2c(C)[nH]c3ccccc23)cc1 (configuration not stated)
photoluminescence quantum yield (in CO): 0.0094 | photoluminescence quantum yield (in CS(C)=O): 0.013

COc1ccc2c(C#N)cc3ccc4cc(C#N)c5ccc(OC)cc5c4c3c2c1
photoluminescence quantum yield (in ClC(Cl)Cl): 0.1

CC(C)(C)C#Cc1cc2c(C#CC(C)(C)C)c(C#CC(C)(C)C)c3cc(C#CC(C)(C)C)cc4c(C#CC(C)(C)C)c(C#CC(C)(C)C)c(c1)c2c34
photoluminescence quantum yield (in ClCCl): 0.12

Cn1nc(-c2ccccc2)c2nc3cc(Cl)ccc3nc21
photoluminescence quantum yield (in C1CCCCC1): 0.58 | photoluminescence quantum yield (in C1CCOC1): 0.27 | photoluminescence quantum yield (in CC#N): 0.08

CN1/C(=C/C=C(/C=C/C2=[N+](C)c3ccccc3C2(C)C)c2cccc(C(F)(F)F)c2)C(C)(C)c2ccccc21
photoluminescence quantum yield (in CCO): 0.11 | photoluminescence quantum yield (in CS(C)=O): 0.16

CN(C)c1ccc2c(c1)C(C)(C)C1=CC(=[N+](C)C)C=CC1=C2C#Cc1ccccc1
photoluminescence quantum yield (in CO): 0.148 | photoluminescence quantum yield (in O): 0.047

C/C(=C\c1ccccc1)c1nc2ccccc2o1
photoluminescence quantum yield (in C1CCCCC1): 0.007 | photoluminescence quantum yield (in CO): 0.002

O=c1oc2ccccc2cc1C#Cc1ccccc1
photoluminescence quantum yield (in CC#N): 0.88

COc1ccc2nc3c(nc2c1)c(-c1ccccc1)nn3C
photoluminescence quantum yield (in C1CCCCC1): 0.22 | photoluminescence quantum yield (in C1CCOC1): 0.34 | photoluminescence quantum yield (in CC#N): 0.35

CCN1c2ccc(C3=CC(c4ccccc4)=[O+][B-](F)(F)O3)cc2Sc2cc(C3=CC(c4ccccc4)=[O+][B-](F)(F)O3)ccc21
photoluminescence quantum yield (in ClCCl): 0.46

CN(C)c1ccc(/C=C/c2cccnn2)cc1
photoluminescence quantum yield (in ClCCl): 0.02

COc1c2ccccc2c(OC)c2c1c1ccc(C(F)(F)F)cc1n2C
photoluminescence quantum yield (in C1CCCCC1): 0.35 | photoluminescence quantum yield (in CC#N): 0.39 | photoluminescence quantum yield (in CO): 0.26 | photoluminescence quantum yield (in ClCCl): 0.36

CN(C)c1ccc(/C=C/c2ccc([N+](=O)[O-])c(O)c2)cc1
photoluminescence quantum yield (in C1CCCCC1): 0.11 | photoluminescence quantum yield (in C1COCCO1): 0.02 | photoluminescence quantum yield (in CCCCCCC): 0.09 | photoluminescence quantum yield (in Cc1ccccc1): 0.09

From the Deep4Chem optical property database
